Results published in patent US4647552A, “Process for obtaining ready for fertilization sexual products from sexually mature fish” (Kozponti Valto-es Hitelbank Rt. Innovacios Alap, priority 1983, dated 1987).
Where a SMILES comes first, the peptide text is derived from it. [ ]: non-standard residue; d: D form. pGlu = O=C1CC[C@@H](C(=O)O)N1

Experiments:
Format in all cases: in vivo
[1] = tested on: horse mackerel (Trachurus trachurus L.); assay: Induced artificial propagation of horse mackerel; conditions: single dose of 10 μg injected, water temperature 18°-24° C.
Experimental: From among horse mackerels caught alive from the Adriatic in November specimens having a length of at least 240 mm are transported to the place of propagation. (Fish of this size are already mature sexually.) The compound of formula (II) is injected into each fish in a single dose of 10 μg. Ovulation takes place in 24 hours at the water temperature of 18°-24° C. Sexual products are obtained in 2 hours. In case of horse mackerel the determination of stage of ripening and sex is unnecessary as ripe fish are at disposal in a practically unlimited quantity.

[2] = tested on: perch [Perca fluviatilis L.]; assay: Induced artificial propagation of perch; conditions: single dose of 20 μg if ripe for ovulation, or last of the 2 μg doses
Experimental: Mature fish are selected from a population and transported to the place of propagation. Maturity of sexual products is determined according to Example 1 but sexes are not segregated. Fish ripe for ovulation--includingmales--are treated with a single dose of 20 μg of decapeptide of formula (II). Fish not yet ripe for ovulation should be kept at the temperature of natural spawning and the above-mentioned compound should be administered in doses of 2 μg each at least 2 but at most 10 times as long as the nucleus of egg cell moves from the centre to the periphery. The number of treatments depends on the actual stage of maturity of sexual products in comparison to the stage "ripe for ovulation". The process of ripening lasts at least 100 day-grades, in extreme cases to 400 day-grades, in the water temperature-interval of 12°-16° C. Spawning takes place 24-36 hours after the administration of the last dose. Perch can be spawned easily in tanks; in such a case stripping of sexual products is not necessary.

[3] = tested on: sterlet (Acipenser ruthenus L.); assay: Induced artificial propagation of sterlet; conditions: single dose of 70 μg if ripe for ovulation, or last of the 10 μg doses, injected
Experimental: From the population of a given habitat mature fish are selected and then transported to the place of propagation. Sexes are segregated and the stage of ripening of eggs from females is determined. Fish are considered to be ripe for ovulation if the nucleus is situated on the periphery of the egg cell. Sperms of males are not examined as in the population of a given habitat the sexual products of males and females are practically in the same stage of ripening. If fish are ripe for ovulation, decapeptide of formula (II) in a single dose of 70 μg each is injected into each fish, including males. If fish are not ripe for ovulation, they should be kept at the temperature of natural spawning and the above compound should be administered in doses of 10 μg each, at least 2 but at most 12 times as long as the nucleus moves from the centre to the periphery. The number of treatments depends on the actual stage of maturity of sexual products in comparison to the stage "ripe for ovulation". This process of ripening lasts at least 100 but at most 630 day-grades in the temperature interval of 12°-18° C. (Day-grade means number of days multiplied by the mean temperature of water used in the ripening period.) Ovulation takes place 24-32 hours after the administration of the last dose. Thereafter sexual products are obtained in 40-60 minutes.

[4] = tested on: common carp (Cyprinus carpio L.); assay: Induced artificial propagation of common carp; conditions: single dose of 70 μg if ripe for ovulation, or last of the 5 μg doses
Experimental: In any season of the year and at any temperature mature breeders are selected from the stock and transported to the place of propagation. Sexes are segregated and the stage of ripening of sexual products is determined according to Example 1. If fish are ripe for ovulation, a single dose of 70 μg of decapeptide of formula (III) is administered, including males. Fish not yet ripe for making ovulate should be kept at the temperature of natural spawning and the above-mentioned compound should be administered in doses of 5 μg each, at least 2 but at most 15 times as long as the nucleus of the egg cell moves from the centre to the periphery. The number of treatments depends on the actual stage of maturity of sexual products in comparison to the stage "ripe for ovulation". The process of ripening lasts at least 100 but most 750 day-grades in the temperature interval of 20°-24° C. Ovulation takes place 240-260 hour-grades after the administration of the last dose. Then sexual products are stripped in 40-60 minutes. cl EXAMPLE 3

[5] = tested on: silver carp (Hypophthalmichthys molitrix Val.); assay: Induced artificial propagation of silver carp; conditions: single dose of 100 μg if ripe for ovulation, or last of the 10 μg doses
Experimental: Sexually mature fish are selected from the stock and transported to the place of propagation. Sexes are segregated. Stage of ripening of sexual products is determined according to Example 1 and fish ripe for ovulation--including males--are treated with a single dose of 100 μg of decapeptide of formula (III). Fish not yet ripe for ovulation should be kept at the temperature of natural spawning and the above-mentioned compound should be administered in doses of 10 μg each, at least 2 but at most 10 times as long as the nucleus of egg cell moves from the centre to the periphery. The number of treatments depends on the actual stage of maturity of sexual products in comparison to the stage "ripe for ovulation". This process of ripening lasts at least 150, in extreme cases to 850, day-grades in the water temperature interval of 20°-26° C. Ovulation takes place 240-260 hour-grades after the administration of the last dose. Thereafter sexual products are stripped.

| Structure (SMILES) | Ovulation takes place in [1] [h] | Spawning takes place after the administration of the last dose [2] [h] | Ovulation takes place after the administration of the last dose [3] [h] | Ovulation takes place after the administration of the last dose [4] | Ovulation takes place after the administration of the last dose [5] |
| --- | --- | --- | --- | --- | --- |
| CC(C)C[C@H](NC(=O)[C@@H](Cc1ccccc1)NC(=O)[C@H](Cc1ccc(O)cc1)NC(=O)[C@H](CO)NC(=O)[C@H](Cc1c[nH]c2ccccc12)NC(=O)[C@H](Cc1c[nH]cn1)NC(=O)[C@@H]1CCC(=O)N1)C(=O)N[C@@H](CCC(N)=O)C(=O)N1CCC[C@H]1C(=O)NCC(N)=O [formula (II), Glp-His-Trp-Ser-Tyr-D-Phe-Leu-Gln-Pro-Gly-NH2] ([pGlu]HWSY[dF]LQPG-NH2) | 24 | 24 to 36 | 24 to 32 | – | – |
| CC(C)C[C@H](NC(=O)[C@H](Cc1c[nH]c2ccccc12)NC(=O)[C@@H](Cc1ccccc1)NC(=O)[C@H](Cc1ccc(O)cc1)NC(=O)[C@H](CO)NC(=O)[C@H](Cc1c[nH]c2ccccc12)NC(=O)[C@H](Cc1c[nH]cn1)NC(=O)[C@@H]1CCC(=O)N1)C(=O)N1CCC[C@H]1C(=O)NCC(N)=O [formula (III), Glp-His-Trp-Ser-Tyr-D-Phe-Trp-Leu-Pro-Gly-NH2] ([pGlu]HWSY[dF]WLPG-NH2) | – | – | – | 240-260 hour-grades | 240-260 hour-grades |
